Measurements as given in patent US8778966B2, “Quinolinone derivatives as PARP and tank inhibitors” (Janssen Pharmaceutica, NV, priority 2007, dated 2014).

Columns and labels:
Human PARP-1 enzyme = target: T1, Human PARP-1 enzyme (Homo sapiens, UniProt P09874); assay: In vitro Scintillation Proximity Assay (SPA) for PARP-1 inhibitory activity; type: biochemical; conditions: read-out: in vitro SPA assay PARP-1 pIC50 (converted)
T1 construct: purchased Trevigen
In short: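 SPA assay: nicked-DNA-activated PARP-1 (0.1–0.2 μg/ml) ADP-ribosylates biotinylated histones (2 μg/ml) using [3H]-NAD+, 20 min at RT in Tris pH 8/DTT/MgCl2, stopped with 2 mM NAD+. Blank-subtracted cpm expressed as % control; IC50 by linear interpolation, reported as pIC50 (10−5 to 3×10−9 M tested).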

HCT116 cells = assay: Mitotic arrest assay on HCT116 cells (phospho-histone H3 Ser10); type: cell-based, human; conditions: Homo sapiens, HCT-116, HCT116 cells; lowest active dose; read-out: Mitotic arrest HCT116 LAD (converted)
Text: Phosphorylation of histone H3 is tightly correlated with chromosome condensation during both mitosis and meiosis. The assay is a cellular immunosorbent assay wherein the sole antibody is labelled with a detectable conjugate. The phospho-histone H3 (ser10) antibody detects endogenous levels of histone H3 only when phosphorylated at serine 10. […] In parallel with antibody detection, the nuclei of the cells are stained with Hoechst 33342 for cell-counting. Cells are detected and analysed using the InCell Analyzer 1000 from GE Healthcare. Since both the antibody-detection as well as the Hoechst-staining are in the nucleus, the dual area object intensity algorithm is used for analysing the wells.
All compounds tested were dissolved in DMSO and further dilutions were made in culture medium. Final DMSO concentrations never exceeded 0.1% (v/v).
HCT116 cells (supplier: ATCC) (human colon carcinoma cell line) were cultivated in Mc Coy's 5 A medium (supplier: Gibco) supplemented with 10% foetal calf serum (FCS), 2 mM L-glutamine and gentamycin at 37° C. in a humidified incubator with 5% CO2.
HCT116 cells were seeded at 20.000 cells per well in a 96 well plate (black/clear bottom, poly-D-lysine coated, supplier Greiner), cultured overnight to adhere to the bottom of the plate and treated with compound for 6 hours at 37° C. in a humidified incubator. After incubation, the medium was removed and cells were fixed using 100 μl/well formaldehyde (Accustain®, Formaline solution 10% neutral buffered, contains 4% formaldehyde w/v, supplier: Sigma) was added. After incubation for 15 minutes at room temperature, the formaldehyde was removed and cells were incubated with methanol (−20° C.) for 15 minutes at room temperature. After incubation, cells were washed once with phosphate-buffered saline (PBS —CaCl2, —MgCl2, suppier: Gibco)/0.05% Tween 20. The anti-phospho-histone H3 (Ser10) Alexa Fluor 488 antibody (supplier: Cell signalling) is used for detection of the cells inmitosis. The antibody was diluted 1/50 in 5% bovine serum albumins (BSA) and 50 μl/well was used for incubation overnight at room temperature in the dark.
A 1/2000 dilution of Hoechtst 33342 (10 mg/ml, supplier: Invitrogen) was made and 100 μl/well was added for at least 30 minutes before acquiring images. The absorbance at dual wavelengths of 360/480 nm was measured using the InCell Analyzer 1000 from GE Healthcare and the results were then analyzed.
For each experiment, controls (containing no drug) and a blank incubation (containing no cells or drugs) were run in parallel. Analysis was done in triplicate. Low cell count wells were invalidated. The blank value was subtracted from all control and sample values and divided by the standard deviation of the measurements. The compounds were considered active when the obtained value (sigma) was >5. Herein the effects of test compounds are expressed as the lowest dose giving a sigma value of >5 (LAD) (see table F-2).

T1 sequence (P09874 whole entry): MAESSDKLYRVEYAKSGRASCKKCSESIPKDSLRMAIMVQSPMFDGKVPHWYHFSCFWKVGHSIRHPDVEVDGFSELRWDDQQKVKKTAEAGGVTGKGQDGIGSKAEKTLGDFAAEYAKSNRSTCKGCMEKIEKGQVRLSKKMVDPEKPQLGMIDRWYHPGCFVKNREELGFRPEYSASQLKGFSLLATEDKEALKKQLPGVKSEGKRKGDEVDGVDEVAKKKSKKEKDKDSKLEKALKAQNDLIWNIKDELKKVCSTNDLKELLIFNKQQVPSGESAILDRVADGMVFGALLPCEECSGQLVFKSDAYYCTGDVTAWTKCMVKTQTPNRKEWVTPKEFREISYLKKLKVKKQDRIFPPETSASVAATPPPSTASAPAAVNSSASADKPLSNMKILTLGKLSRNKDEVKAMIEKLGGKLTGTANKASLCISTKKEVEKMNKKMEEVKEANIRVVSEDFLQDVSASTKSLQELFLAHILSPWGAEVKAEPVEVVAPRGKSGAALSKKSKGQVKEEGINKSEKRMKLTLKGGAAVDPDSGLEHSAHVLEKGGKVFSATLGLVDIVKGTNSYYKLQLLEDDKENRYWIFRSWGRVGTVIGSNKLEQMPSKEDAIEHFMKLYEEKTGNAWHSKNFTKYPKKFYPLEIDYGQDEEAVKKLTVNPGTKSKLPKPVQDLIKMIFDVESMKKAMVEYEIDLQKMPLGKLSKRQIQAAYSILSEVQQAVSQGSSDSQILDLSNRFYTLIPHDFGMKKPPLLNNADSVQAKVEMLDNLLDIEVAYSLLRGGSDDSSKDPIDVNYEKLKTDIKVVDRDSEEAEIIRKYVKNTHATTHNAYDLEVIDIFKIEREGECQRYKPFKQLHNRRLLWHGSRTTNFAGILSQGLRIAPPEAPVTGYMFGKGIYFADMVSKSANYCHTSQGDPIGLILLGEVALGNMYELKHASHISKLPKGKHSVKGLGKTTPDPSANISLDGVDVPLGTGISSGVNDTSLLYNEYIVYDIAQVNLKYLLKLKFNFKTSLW

## CCc1cc2ccc(C(C)(C#N)Cc3ccc(Br)cc3)cc2[nH]c1=O (stereo not drawn) [Compound 118]
Human PARP-1 enzyme
  IC50: 398 nM
HCT116 cells
  minimal effective concentration: 1 µM

## CCc1cc2ccc(C(C)(C#N)Cc3ccc(OC)cc3)cc2[nH]c1=O (stereo not drawn) [Compound 119]
Human PARP-1 enzyme
  IC50: 316 nM
HCT116 cells
  minimal effective concentration: 1 µM

## CCc1cc2ccc(C(C)(C#N)Cc3cccc(F)c3F)cc2[nH]c1=O (stereo not drawn) [Compound 120]
Human PARP-1 enzyme
  IC50: 631 nM
HCT116 cells
  minimal effective concentration: 0.1 µM

## CCc1cc2ccc(C(C)(C#N)Cc3cccc(Cl)c3Cl)cc2[nH]c1=O (stereo not drawn) [Compound 121]
Human PARP-1 enzyme
  IC50: 1580 nM
HCT116 cells
  minimal effective concentration: 0.316 µM

## CCc1cc2ccc(C(C)(C#N)Cc3ccc4ccccc4c3)cc2[nH]c1=O (stereo not drawn) [Compound 122]
Human PARP-1 enzyme
  IC50: 1260 nM
HCT116 cells
  minimal effective concentration: 0.316 µM

## CCc1cc2ccc(C(C)(C#N)Cc3ccc4c(c3)nnn4C)cc2[nH]c1=O (stereo not drawn) [Compound 123]
Human PARP-1 enzyme
  IC50: 158 nM
HCT116 cells
  minimal effective concentration: 3.16 µM

## CCc1cc2ccc(C(C)(C#N)Cc3ccc4c(c3)OCCO4)cc2[nH]c1=O (stereo not drawn) [Compound 124]
Human PARP-1 enzyme
  IC50: 501 nM
HCT116 cells
  minimal effective concentration: 0.316 µM

## CCc1cc2ccc(C(C)(C#N)Cc3cc(C)cc(C)c3)cc2[nH]c1=O (stereo not drawn) [Compound 125]
Human PARP-1 enzyme
  IC50: 1000 nM
HCT116 cells
  minimal effective concentration: 0.1 µM

## CCc1cc2ccc(C(C)(C#N)Cc3cc(F)cc(Cl)c3)cc2[nH]c1=O (stereo not drawn) [Compound 126]
Human PARP-1 enzyme
  IC50: 794 nM
HCT116 cells
  minimal effective concentration: 0.1 µM

## CCc1cc2ccc(C(C)(C#N)Cc3cc(F)cc(C(F)(F)F)c3)cc2[nH]c1=O (stereo not drawn) [Compound 127]
Human PARP-1 enzyme
  IC50: 1000 nM
HCT116 cells
  minimal effective concentration: 0.316 µM

## CCc1cc2ccc(C(C)(C#N)Cc3cc(F)cc(F)c3)cc2[nH]c1=O (stereo not drawn) [Compound 128]
Human PARP-1 enzyme
  IC50: 501 nM
HCT116 cells
  minimal effective concentration: 0.1 µM

## CCc1cc2ccc(C(C)(C#N)Cc3cccc(S(C)(=O)=O)c3)cc2[nH]c1=O (stereo not drawn) [Compound 129]
Human PARP-1 enzyme
  IC50: 631 nM
HCT116 cells
  minimal effective concentration: 0.316 µM

## CCc1cc2ccc(C(C)(C#N)Cc3cccc(Cl)c3F)cc2[nH]c1=O (stereo not drawn) [Compound 130]
Human PARP-1 enzyme
  IC50: 631 nM
HCT116 cells
  minimal effective concentration: 0.1 µM

## CCc1cc2ccc(C(C)(C#N)Cc3cc(C(F)(F)F)cc(C(F)(F)F)c3)cc2[nH]c1=O (stereo not drawn) [Compound 131]
Human PARP-1 enzyme
  IC50: 1580 nM
HCT116 cells
  minimal effective concentration: 3.16 µM

## CCc1cc2ccc(C(C)(C#N)Cc3cccc(C)c3F)cc2[nH]c1=O (stereo not drawn) [Compound 132]
Human PARP-1 enzyme
  IC50: 1260 nM
HCT116 cells
  minimal effective concentration: 0.1 µM

## CCc1cc2ccc(C(C)(C#N)Cc3cc(Br)cc(Br)c3)cc2[nH]c1=O (stereo not drawn) [Compound 133]
Human PARP-1 enzyme
  IC50: 794 nM
HCT116 cells
  minimal effective concentration: 0.1 µM

## CCc1cc2ccc(C(C)(C#N)Cc3cccc(C(F)(F)F)c3F)cc2[nH]c1=O (stereo not drawn) [Compound 134]
Human PARP-1 enzyme
  IC50: 1260 nM
HCT116 cells
  minimal effective concentration: 0.316 µM

## CCc1cc2ccc(C(C)(C#N)Cc3c(Cl)cccc3Cl)cc2[nH]c1=O (stereo not drawn) [Compound 135]
Human PARP-1 enzyme
  IC50: 1000 nM
HCT116 cells
  minimal effective concentration: 0.2 µM

## CCc1cc2ccc(C(C)(C#N)Cc3c(Cl)cccc3Br)cc2[nH]c1=O (stereo not drawn) [Compound 136]
Human PARP-1 enzyme
  IC50: 1580 nM
HCT116 cells
  minimal effective concentration: 0.316 µM

## CCc1cc2ccc(C(C)(C#N)CC#Cc3cccc(F)c3)cc2[nH]c1=O (stereo not drawn) [Compound 184]
Human PARP-1 enzyme
  IC50: 100 nM

## Cc1cc2ccc([C@@](C)(C#N)[C@@H]3CCc4cc(C#N)ccc43)cc2[nH]c1=O [Compound 245]
Human PARP-1 enzyme
  IC50: 200 nM

## CCc1cc2ccc([C@](C)(C#N)C[C@@H]3CCc4cc(C)ccc4O3)cc2[nH]c1=O [Compound 251]
Human PARP-1 enzyme
  IC50: 200 nM

## CCc1cc2ccc([C@@](C)(C#N)C[C@@H]3CCc4cc(C)ccc4O3)cc2[nH]c1=O [Compound 252]
Human PARP-1 enzyme
  IC50: 200 nM

## CCc1cc2ccc(C(C#N)(CC)CCOc3ccc(C#N)cc3)cc2[nH]c1=O (stereo not drawn) [Compound 271]
Human PARP-1 enzyme
  IC50: 100 nM

## Cc1cc2ccc([C@@](C)(C#N)[C@H]3CCc4cc(C#N)ccc43)cc2[nH]c1=O [Compound 389]
Human PARP-1 enzyme
  IC50: 200 nM

## CCc1cc2ccc(C(C#N)(CC)C3CCc4ccc(F)cc43)cc2[nH]c1=O (stereo not drawn) [Compound 391]
Human PARP-1 enzyme
  IC50: 200 nM
